In the test the test system is HCV genotype-1a variant with glutamine 30 changed to glutamate in the NS5A protein. It counts as cell-based. The settings on record: test compound titrated with BMS-790052 fixed at 200 nM; genotype 1a Q30E replicon. The method in brief: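 Synergy was assessed by combining several fixed amounts of an NS5A-targeting compound with a titration of the second compound of interest.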

Molecules are shown by their SMILES.

Turning to `CC(C)(C)[C@H](NC(=O)C1(O)CCC(F)(F)CC1)c1nc(-c2ccc(-c3ccc(-c4c[nH]c([C@@H](NC(=O)C5(O)CCC(F)(F)CC5)C(C)(C)C)n4)cc3)cc2)c[nH]1` [Compound P-33], the “Fold-Synergistic 1a (Q30E)” value is over 100 fold. For `CC(C)(C(=O)N[C@H](c1nc(-c2ccc(-c3ccc(-c4c[nH]c([C@@H](NC(=O)C(C)(C)C(=O)N5CCOCC5)C(C)(C)C)n4)cc3)cc2)c[nH]1)C(C)(C)C)C(=O)N1CCOCC1` [Compound W-135], the “Fold-Synergistic 1a (Q30E)” value is over 10 fold.

As to `CC(C)(C)OC(=O)N1CC(C)(C)OCC1C(=O)NC(c1nc(-c2ccc(-c3ccc(-c4c[nH]c(C(NC(=O)C5COC(C)(C)CN5C(=O)OC(C)(C)C)C(C)(C)C)n4)cc3)cc2)c[nH]1)C(C)(C)C` [Compound L-60], the “Fold-Synergistic 1a (Q30E)” value was over 100 fold. Regarding `CC(C)[C@H](NC(=O)C(=O)C1(CF)CCC(F)(F)CC1)c1ncc(-c2ccc(-c3ccc(-c4cnc([C@@H](NC(=O)C(=O)C5(CF)CCC(F)(F)CC5)C(C)C)[nH]4)cc3)cc2)[nH]1` [Compound P-127], the “Fold-Synergistic 1a (Q30E)” value was over 100 fold. Consider `COc1cccc(C(=O)C(=O)N[C@H](c2ncc(-c3ccc(-c4ccc(-c5cnc([C@@H](NC(=O)C(=O)c6cccc(OC)c6F)C(C)C)[nH]5)cc4)cc3)[nH]2)C(C)C)c1F` [Compound P-119], for which the “Fold-Synergistic 1a (Q30E)” value is on record as over 100 fold. `CC(C)(C)C(=O)N[C@H](c1nc2ccc(C#Cc3ccc4nc([C@@H](NC(=O)C(C)(C)C)C(C)(C)C)[nH]c4c3)cc2[nH]1)C(C)(C)C.O=C(O)C(F)(F)F` [Compound B39]: the “Fold-Synergistic 1a (Q30E)” value was over 100 fold.

With `C=CC(C)(C)C(=O)N[C@H](c1nc(-c2ccc(-c3ccc(-c4cnc([C@@H](NC(=O)C(C)(C)C=C)C(C)(C)C)[nH]4)cc3)cc2)c[nH]1)C(C)(C)C.O=C(O)C(F)(F)F` [Compound B-166], the “Fold-Synergistic 1a (Q30E)” value is recorded as over 100 fold. Consider `CC1(C)CC1C(=O)N[C@H](c1ncc(-c2ccc(-c3ccc(-c4cnc([C@@H](NC(=O)C5CC5(C)C)C(C)(C)C)[nH]4)cc3)cc2)[nH]1)C(C)(C)C` (single isomer, unassigned) [Compound B80], for which the “Fold-Synergistic 1a (Q30E)” value is given as over 100 fold. Regarding `CC(C)[C@H](NC(=O)C(C)(C)C)c1nc(-c2ccc(-c3ccc(-c4c[nH]c([C@@H](NC(=O)C(C)(C)C)C(C)C)n4)cn3)cc2)c[nH]1.O=C(O)C(F)(F)F` [Compound N-103], the “Fold-Synergistic 1a (Q30E)” value was over 100 fold.

With `CCN(CC(F)(F)F)C(=O)C(=O)NC(c1nc(-c2ccc(-c3ccc(-c4c[nH]c(C(NC(=O)C(=O)N(CC)CC(F)(F)F)C5CC5)n4)cc3)cc2)c[nH]1)C1CC1` [Compound L-35], the “Fold-Synergistic 1a (Q30E)” value was over 100 fold. As to `CC(C)[C@H](NC(=O)c1cccc(C(F)(F)F)c1)c1ncc(-c2ccc(-c3ccc(-c4cnc([C@@H](NC(=O)c5cccc(C(F)(F)F)c5)C(C)C)[nH]4)cc3)cc2)[nH]1` [Compound S-79], the “Fold-Synergistic 1a (Q30E)” value is recorded as over 100 fold. The figure for `CC(C)(C)CCC(=O)N[C@H](c1nc(-c2ccc(-c3ccc(-c4c[nH]c([C@@H](NC(=O)CCC(C)(C)C)C(C)(C)C)n4)cc3)cc2)c[nH]1)C(C)(C)C` [Compound N-58] is over 100 fold. The result for `CC(C)C(C)(C)C(=O)N[C@H](c1ncc(-c2ccc(-c3ccc(-c4cnc([C@@H](NC(=O)C(C)(C)C(C)C)C(C)(C)C)[nH]4)cc3)cc2)[nH]1)C(C)(C)C` [Compound B88] reads over 100 fold; that for `CC(C)(C)[C@H](NC(=O)[C@@H]1C[C@@H](F)CN1)c1nc(-c2ccc(-c3ccc(-c4c[nH]c([C@@H](NC(=O)[C@@H]5C[C@@H](F)CN5)C(C)(C)C)n4)cc3)cc2)c[nH]1` [Compound W-101, (2S,2'S,4R,4′R)—N,N′-((1S,1′S)-(4,4′-([1,1′-biphenyl]-4,4′-diyl)bis(1H-imidazole-4,2-diyl))bis(2,2-dimethylpropane-1,1-diyl))bis(4-fluoropyrrolidine-2-carboxamide)], over 10 fold. The result for `CC(CO)(CO)C(=O)N[C@H](c1nc(-c2ccc(-c3ccc(-c4c[nH]c([C@@H](NC(=O)C(C)(CO)CO)C(C)(C)C)n4)cc3)cc2)c[nH]1)C(C)(C)C` [Compound W-125] reads over 100 fold; that for `CC(C)(C)C(=O)NC(c1nc(-c2ccc(-c3ccc(-c4c[nH]c(C(NC(=O)C(C)(C)C)C5(C(F)(F)F)CC5)n4)cc3)cc2)c[nH]1)C1(C(F)(F)F)CC1` (single isomer, unassigned) [Compound N-107A], over 100 fold; that for `CC(C)(C)[C@H](NC(=O)C1CCC(F)(F)CC1)c1ncc(C#Cc2ccc3cc(C#Cc4cnc([C@@H](NC(=O)C5CCC(F)(F)CC5)C(C)(C)C)[nH]4)ccc3c2)[nH]1` [Compound B65], over 100 fold. Take `CC1([C@H](NC(=O)C(C)(C)C(C)(C)O)c2ncc(-c3ccc(-c4ccc(-c5cnc([C@@H](NC(=O)C(C)(C)C(C)(C)O)C6(C)CC6)[nH]5)cc4)cc3)[nH]2)CC1` [Compound B148]: the “Fold-Synergistic 1a (Q30E)” value is over 100 fold.

With `COc1ccccc1C(O)C(C)(C)C(=O)N[C@H](c1nc(-c2ccc(-c3ccc(-c4c[nH]c([C@@H](NC(=O)C(C)(C)C(O)c5ccccc5OC)C(C)(C)C)n4)cc3)cc2)c[nH]1)C(C)(C)C` (single isomer, unassigned) [Compound N-125A], the “Fold-Synergistic 1a (Q30E)” value is listed as over 100 fold. The figure for `CC(C)(NC(=O)OC1CCCCC1)C(=O)N[C@H](c1nc(-c2ccc(-c3ccc(-c4c[nH]c([C@@H](NC(=O)C(C)(C)NC(=O)OC5CCCCC5)C(C)(C)C)n4)cc3)cc2)c[nH]1)C(C)(C)C` [Compound Q-6] is over 100 fold; for `CC(C)(C)[C@H](NC(=O)C1CCC(=O)CC1)c1nc(-c2ccc(-c3ccc(-c4c[nH]c([C@@H](NC(=O)C5CCC(=O)CC5)C(C)(C)C)n4)cc3)cc2)c[nH]1` [Compound W-173] it is over 100 fold.

Consider `CC(C)(C)C(NC(=O)C(C)(C)C1CCCCO1)c1nc(-c2ccc(-c3ccc(-c4c[nH]c(C(NC(=O)C(C)(C)C5CCCCO5)C(C)(C)C)n4)cc3)cc2)c[nH]1` (mixture of isomers) [Compound P-153], for which the “Fold-Synergistic 1a (Q30E)” value is on record as over 100 fold.

On to `CC(C)CC(=O)N[C@H](c1nc(-c2ccc(-c3ccc(-c4nc([C@@H](NC(=O)CC(C)C)C(C)C)[nH]c4Cl)cc3)cc2)c(Cl)[nH]1)C(C)C` [Compound P-48], for which the “Fold-Synergistic 1a (Q30E)” value was over 100 fold. Turning to `CC(C)CC(=O)N(C)C(c1ncc(-c2ccc(-c3ccc(-c4cnc(C(C(C)C)N(C)C(=O)CC(C)C)[nH]4)cc3)cc2)[nH]1)C(C)C` (stereo not shown) [Compound P-54], the “Fold-Synergistic 1a (Q30E)” value is over 100 fold.

On to `CC(C)(C)[C@H](N)c1nc(-c2ccc(-c3ccc(-c4c[nH]c([C@@H](Nc5ncc(Br)cn5)C(C)(C)C)n4)cc3)cc2)c[nH]1` [Compound W-16B], for which the “Fold-Synergistic 1a (Q30E)” value is under 10 fold. As to `CC(C)(C)[C@H](NC(=O)C1CCC(F)(F)CC1)c1ncc(CCc2ccc3cc(-c4cnc([C@@H](NC(=O)C5CCC(F)(F)CC5)C(C)(C)C)[nH]4)ccc3c2)[nH]1` [Compound B6], the “Fold-Synergistic 1a (Q30E)” value is reported as over 100 fold. The figure for `CC(C)(C(=O)N[C@H](c1ncc(-c2ccc(-c3ccc(-c4cnc([C@@H](NC(=O)C(C)(C)C5CCCC5)C(C)(C)C)[nH]4)cc3)cc2)[nH]1)C(C)(C)C)C1CCCC1` [Compound B82] is over 100 fold. `CCN(CC)C(=O)NC(c1nc(-c2ccc(-c3ccc(-c4c[nH]c(C(NC(=O)N(CC)CC)C(C)C)n4)cc3)cc2)c[nH]1)C(C)C` (stereo not shown) [Compound S-229]: the “Fold-Synergistic 1a (Q30E)” value is over 100 fold. In the case of `COc1ccccc1C(O)CC(=O)N[C@H](c1nc(-c2ccc(-c3ccc(-c4c[nH]c([C@@H](NC(=O)C5(C(O)c6ccccc6OC)CC5)C(C)(C)C)n4)cc3)cc2)c[nH]1)C(C)(C)C` (single isomer, unassigned) [Compound N-135A], the “Fold-Synergistic 1a (Q30E)” value is over 100 fold.

For the molecule `CC(C)(C)[C@H](NC(=O)C1CCC(F)(F)CC1)c1nc2ccc(C#CC#Cc3ccc4nc([C@@H](NC(=O)C5CCC(F)(F)CC5)C(C)(C)C)[nH]c4c3)cc2[nH]1` [Compound B46], the “Fold-Synergistic 1a (Q30E)” value is listed as over 100 fold.

As for `CC(C)(C)CC(=O)NC1(C(=O)N[C@H](c2nc(-c3ccc(-c4ccc(-c5c[nH]c([C@@H](NC(=O)C6(NC(=O)CC(C)(C)C)CCCCC6)C(C)(C)C)n5)cc4)cc3)c[nH]2)C(C)(C)C)CCCCC1` [Compound W-254], the “Fold-Synergistic 1a (Q30E)” value is over 100 fold. As to `CC(C)[C@H](NC(=O)CC1CCCCCC1)c1ncc(-c2ccc(-c3ccc(-c4cnc([C@@H](NC(=O)CC5CCCCCC5)C(C)C)[nH]4)cc3)cc2)[nH]1` [Compound S-56], the “Fold-Synergistic 1a (Q30E)” value is reported as over 100 fold.

With `CC(C)[C@H](NC(=O)C1(c2ccc(Cl)cc2)CCCC1)c1ncc(-c2ccc(-c3ccc(-c4cnc([C@@H](NC(=O)C5(c6ccc(Cl)cc6)CCCC5)C(C)C)[nH]4)cc3)cc2)[nH]1` [Compound S-2], the “Fold-Synergistic 1a (Q30E)” value is over 100 fold. The result for `CC(C)(C)[C@H](NC(=O)C1CC12CCOCC2)c1ncc(-c2ccc(-c3ccc(-c4cnc([C@@H](NC(=O)C5CC56CCOCC6)C(C)(C)C)[nH]4)cc3)cc2)[nH]1` (single isomer, unassigned) [Compound B71] reads over 100 fold; that for `CC(C)(C)[C@H](NC(=O)c1cccc(B(O)O)c1)c1nc(-c2ccc(-c3ccc(-c4cnc([C@@H](NC(=O)c5cccc(B(O)O)c5)C(C)(C)C)[nH]4)cc3)cc2)c[nH]1` [Compound B-178], over 10 fold; that for `C=C1CCC(C(=O)N[C@H](c2nc(-c3ccc(-c4ccc(-c5c[nH]c([C@@H](NC(=O)C6CCC(=C)CC6)C(C)(C)C)n5)cc4)cc3)c[nH]2)C(C)(C)C)CC1` [Compound N-118], over 100 fold. As to `CC(C)[C@H](NC(=O)C1CCOCC1)c1ncc(-c2ccc(-c3ccc(-c4cnc([C@@H](NC(=O)C5CCOCC5)C(C)C)[nH]4)cc3)cc2)[nH]1` [Compound P-59], the “Fold-Synergistic 1a (Q30E)” value is given as over 100 fold.

These data come from patent publication US20160158200A1, “Combinations of Hepatitis C Virus Inhibitors” (priority 2013, published 2016).
